Values of other authors in PMC11053612, “Membrane-Fusing Vehicles for Re-Sensitizing Transporter-Mediated Multiple-Drug Resistance in Cancer” (Pharmaceutics, 2024).

How the values were obtained:
Details in all cases: ref [23],[24],[25],[26]
[1] = molecular target: T1, ABCB1 (Homo sapiens, UniProt P08183); design: method as in PMID 23470221, PMID 7999426, PMID 11309820, PMID 14973080; key: +: whether they are actively transported or not
T1 construct: expressed in transfected cells; host or cells: MDCK II MDR1 (canine kidney MDCK II, transfected; gift of Dr. A. Schinkel, Netherlands Cancer Institute)

[2] = molecular target: T2, ABCC1 (Homo sapiens, UniProt P33527); design: method as in PMID 23470221, PMID 7999426, PMID 11309820, PMID 14973080; key: +: whether they are actively transported or not; −: whether they are actively transported or not
T2 construct: expressed in transfected cells; host or cells: MDCK II MRP1 (canine kidney MDCK II, transfected; gift of Dr. A. Schinkel, Netherlands Cancer Institute)

[3] = test system: ABCG2; design: method as in PMID 23470221, PMID 7999426, PMID 11309820, PMID 14973080; key: +: whether they are actively transported or not; −: whether they are actively transported or not

T2 sequence (P33527 whole entry): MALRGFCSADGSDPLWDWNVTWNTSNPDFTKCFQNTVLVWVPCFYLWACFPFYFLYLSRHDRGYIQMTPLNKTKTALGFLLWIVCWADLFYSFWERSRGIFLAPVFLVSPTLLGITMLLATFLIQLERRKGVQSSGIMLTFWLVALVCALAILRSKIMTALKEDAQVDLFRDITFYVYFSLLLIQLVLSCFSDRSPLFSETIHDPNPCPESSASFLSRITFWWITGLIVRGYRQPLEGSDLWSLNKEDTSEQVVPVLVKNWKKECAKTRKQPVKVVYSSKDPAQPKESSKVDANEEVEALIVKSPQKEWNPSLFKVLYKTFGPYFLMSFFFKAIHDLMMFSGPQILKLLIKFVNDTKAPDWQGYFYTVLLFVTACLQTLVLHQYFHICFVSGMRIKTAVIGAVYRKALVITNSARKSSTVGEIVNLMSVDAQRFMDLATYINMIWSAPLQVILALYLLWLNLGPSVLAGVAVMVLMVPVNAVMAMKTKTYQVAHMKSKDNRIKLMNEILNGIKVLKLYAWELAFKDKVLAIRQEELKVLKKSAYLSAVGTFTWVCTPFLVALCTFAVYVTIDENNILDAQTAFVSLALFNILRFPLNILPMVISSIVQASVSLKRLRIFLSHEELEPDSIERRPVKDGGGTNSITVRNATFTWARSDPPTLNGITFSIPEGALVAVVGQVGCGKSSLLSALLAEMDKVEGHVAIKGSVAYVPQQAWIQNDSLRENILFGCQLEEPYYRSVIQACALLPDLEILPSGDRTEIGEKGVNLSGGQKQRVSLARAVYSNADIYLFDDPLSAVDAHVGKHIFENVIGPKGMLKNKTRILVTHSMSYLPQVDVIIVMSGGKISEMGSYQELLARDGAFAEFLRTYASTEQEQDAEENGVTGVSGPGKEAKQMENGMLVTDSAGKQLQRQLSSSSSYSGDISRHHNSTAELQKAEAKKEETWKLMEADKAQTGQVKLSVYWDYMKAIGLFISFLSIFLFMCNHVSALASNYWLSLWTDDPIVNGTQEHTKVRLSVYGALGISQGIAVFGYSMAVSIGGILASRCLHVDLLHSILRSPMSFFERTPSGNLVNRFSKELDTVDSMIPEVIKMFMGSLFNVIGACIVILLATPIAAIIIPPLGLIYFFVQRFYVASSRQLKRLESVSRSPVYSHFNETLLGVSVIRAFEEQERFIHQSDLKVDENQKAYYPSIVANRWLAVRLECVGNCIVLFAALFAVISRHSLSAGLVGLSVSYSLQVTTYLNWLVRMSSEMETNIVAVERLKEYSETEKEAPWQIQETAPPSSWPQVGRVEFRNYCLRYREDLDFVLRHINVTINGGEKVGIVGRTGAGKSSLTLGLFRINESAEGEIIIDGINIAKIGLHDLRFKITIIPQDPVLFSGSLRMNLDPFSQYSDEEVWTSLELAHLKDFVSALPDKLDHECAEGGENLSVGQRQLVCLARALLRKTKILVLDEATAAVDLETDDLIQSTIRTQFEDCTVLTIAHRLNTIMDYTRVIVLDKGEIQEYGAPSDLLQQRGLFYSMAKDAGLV
T1 sequence (P08183 whole entry): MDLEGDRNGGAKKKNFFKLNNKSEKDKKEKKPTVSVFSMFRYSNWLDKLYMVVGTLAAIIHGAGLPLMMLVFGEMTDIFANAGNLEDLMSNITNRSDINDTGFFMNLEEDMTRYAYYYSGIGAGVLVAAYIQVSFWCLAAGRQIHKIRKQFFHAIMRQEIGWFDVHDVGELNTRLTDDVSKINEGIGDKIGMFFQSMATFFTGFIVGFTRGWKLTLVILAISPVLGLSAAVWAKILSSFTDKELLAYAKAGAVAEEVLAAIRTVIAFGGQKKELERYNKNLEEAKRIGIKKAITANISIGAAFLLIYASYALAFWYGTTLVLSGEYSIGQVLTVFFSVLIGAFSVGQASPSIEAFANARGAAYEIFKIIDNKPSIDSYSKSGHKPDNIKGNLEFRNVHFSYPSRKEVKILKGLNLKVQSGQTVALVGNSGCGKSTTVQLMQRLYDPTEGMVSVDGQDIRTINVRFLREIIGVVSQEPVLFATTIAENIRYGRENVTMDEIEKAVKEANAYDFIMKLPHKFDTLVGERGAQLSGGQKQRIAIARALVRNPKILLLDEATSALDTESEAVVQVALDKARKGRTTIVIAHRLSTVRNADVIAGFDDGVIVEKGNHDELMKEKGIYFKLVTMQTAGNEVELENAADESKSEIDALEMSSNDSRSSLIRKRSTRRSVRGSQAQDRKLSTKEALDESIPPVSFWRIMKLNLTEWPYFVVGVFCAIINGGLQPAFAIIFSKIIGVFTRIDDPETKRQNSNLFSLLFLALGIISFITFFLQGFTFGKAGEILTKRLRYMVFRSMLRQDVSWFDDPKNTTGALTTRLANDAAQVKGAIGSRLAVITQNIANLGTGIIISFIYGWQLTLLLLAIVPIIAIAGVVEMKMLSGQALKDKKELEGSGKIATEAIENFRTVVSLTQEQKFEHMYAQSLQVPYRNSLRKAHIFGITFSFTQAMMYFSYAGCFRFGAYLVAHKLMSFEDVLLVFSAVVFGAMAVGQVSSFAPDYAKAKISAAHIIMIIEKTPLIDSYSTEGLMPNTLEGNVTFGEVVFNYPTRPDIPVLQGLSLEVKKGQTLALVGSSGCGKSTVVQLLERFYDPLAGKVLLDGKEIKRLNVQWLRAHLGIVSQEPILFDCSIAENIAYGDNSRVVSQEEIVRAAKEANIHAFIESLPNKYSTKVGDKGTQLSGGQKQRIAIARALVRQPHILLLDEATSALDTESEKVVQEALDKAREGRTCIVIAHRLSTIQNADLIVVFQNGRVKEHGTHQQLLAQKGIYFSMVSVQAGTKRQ

| SMILES | actively transported by ABCB1 [1] | actively transported by ABCC1 [2] | actively transported by ABCG2 [3] |
| --- | --- | --- | --- |
| O=C(O)CN(CC(=O)O)Cc1cc2c(cc1O)Oc1cc(O)c(CN(CC(=O)O)CC(=O)O)cc1C21OC(=O)c2ccccc21 [Calcein] | + | + | − |
| CCOc1ccc(-c2nc3ccc(-c4nc5ccc(N6CCN(C)CC6)cc5[nH]4)cc3[nH]2)cc1 [Hoechst 33324] |  | − | + |
| C=Cc1c(C)c2cc3nc(c4c5[nH]c(cc6nc(cc1[nH]2)C(C)=C6CC)c(C)c5C(=O)[C@@H]4C(=O)OC)[C@@H](CCC(=O)O)[C@@H]3C [Pheophorbide A] |  | − | + |
| COC(=O)c1ccccc1-c1c2ccc(=N)cc-2oc2cc(N)ccc12 [Rhodamine 123] | + | + | − |
